This test concerns the target T1, C3a anaphylatoxin chemotactic receptor (Homo sapiens, UniProt Q16581).
T1 sequence (Q16581 whole entry): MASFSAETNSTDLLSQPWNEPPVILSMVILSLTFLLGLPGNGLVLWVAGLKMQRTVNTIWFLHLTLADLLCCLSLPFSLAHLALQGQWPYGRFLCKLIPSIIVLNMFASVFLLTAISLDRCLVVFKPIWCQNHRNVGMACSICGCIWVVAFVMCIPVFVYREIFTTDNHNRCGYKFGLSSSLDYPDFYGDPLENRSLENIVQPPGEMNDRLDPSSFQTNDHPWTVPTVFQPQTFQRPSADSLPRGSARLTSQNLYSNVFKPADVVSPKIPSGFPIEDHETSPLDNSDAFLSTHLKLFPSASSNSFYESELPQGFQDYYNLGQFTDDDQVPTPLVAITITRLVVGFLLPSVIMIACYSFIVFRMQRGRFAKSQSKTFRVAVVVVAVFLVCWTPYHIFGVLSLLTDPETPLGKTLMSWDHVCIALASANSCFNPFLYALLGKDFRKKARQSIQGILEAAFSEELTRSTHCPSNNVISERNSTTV
Put plainly: Displacement of [125I-C3a] from C3a receptor in human PBMC by scintillation counting.

As usually defined, the pIC50 is the IC50 on a negative log10 scale, so that one unit is a factor of ten. The low end stands for a large IC50, the high end for a small IC50.

Each structure is given as a SMILES string. pIC50: −log10 of the molar value.

`NC(N)=NCCC[C@H](NC(=O)COCC(c1ccccc1)c1ccccc1)C(=O)O` [(S)-2-(2-(2,2-diphenylethoxy)acetamido)-5-guanidinopentanoic acid]: the pIC50 is 6.90.
